Experimental findings from patent US20240254138A1, “TRICYCLIC PYRIMIDINES AS CYCLIN-DEPENDENT KINASE 7 (CDK7) INHIBITORS” (JANSSEN PHARMACEUTICA NV, priority 2021, published 2024) are described below.

The target in experiment [1] is CDK7/cyclinH/MAT1 trimeric complex (Homo sapiens, UniProt P50613). Nature of the experiment: In vitro CDK7 assay, potency of irreversible covalent inhibitors (kinact/KI), coupled PK/LDH ADP readout at 340 nm. The settings on record: for Ki: CDK7 (20 nM enz.) (KI, μM), 20 nM enzyme; for kinact: read-out: CDK7 (20 nM enz.) (kinact, s^−1), 20 nM enzyme.
Experiment [2] relates to RNA Polymerase II Serine 5 phosphorylation (Rpb1 CTD, downstream substrate of CDK7) in A549 cells. In words: Imaging-based cellular RNA PolII Ser5 phosphorylation assay in A549 cells. It is filed as cell-based, human. The settings on record: Homo sapiens, A549, A549 cells, wild-type CDK7; RNA PolII Ser5 phosphorylation; averaged over all measurements; read-out: CDK7_A549 Wild-type CDK7 (pIC50) (converted). In outline:
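IC50 derived by fitting % control (DMSO high, 10 μM reference low) against concentration, with Hill slope. Readout: high-content imaging of phospho-Ser5 Rpb1 CTD antibody staining in fixed, permeabilized A549 cells exposed to compound 3 h after 20 h culture in 1% FBS DMEM.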

Experiment [3] deals with RNA Polymerase II Serine 5 phosphorylation in A549 cells overexpressing CDK7-mutant (C312S). Nature of the experiment: Imaging-based cellular RNA PolII Ser5 phosphorylation assay in A549 cells overexpressing CDK7-mutant (C312S). It is filed as cell-based, human. The settings on record: Homo sapiens, A549, A549 cells overexpressing CDK7-mutant (C312S); RNA PolII Ser5 phosphorylation; averaged over all measurements; read-out: CDK7_A549 mutant hCDK7(pIC50) (converted). In outline: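 Readout was automated imaging of anti-phospho-Ser5 Rpb1 CTD immunofluorescence, with IC50 fitted to % control versus concentration. Cells were A549 stably overexpressing non-covalently targetable CDK7 C312S alongside wild-type, exposed to compound 3 h at 37 °C. DMSO and 10 μM reference compound served as controls.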

The mark [4] stands for this setting: read-out: CDK7 (20 nM enz.) (kinact/KI, M^−1*s^−1), 20 nM enzyme.
Setting [5] is: read-out: CDK7 (20 nM enz.) (kobs/[I], M^−1*s^−1), 20 nM enzyme.

Like-named read-outs stand apart in the source and are kept apart here.

Chain of CDK7/cyclinH/MAT1 trimeric complex (P50613 whole entry): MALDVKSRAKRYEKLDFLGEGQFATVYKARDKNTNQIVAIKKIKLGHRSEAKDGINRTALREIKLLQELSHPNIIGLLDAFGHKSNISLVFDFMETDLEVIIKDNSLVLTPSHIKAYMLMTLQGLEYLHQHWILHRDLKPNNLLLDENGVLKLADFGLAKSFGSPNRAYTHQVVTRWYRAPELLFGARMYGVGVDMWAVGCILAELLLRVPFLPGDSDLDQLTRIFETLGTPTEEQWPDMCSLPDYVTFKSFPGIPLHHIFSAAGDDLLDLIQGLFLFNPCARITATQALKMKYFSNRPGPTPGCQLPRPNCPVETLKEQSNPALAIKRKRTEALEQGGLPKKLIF
Chain of CDK7/cyclinH/MAT1 trimeric complex (P51946 whole entry partner): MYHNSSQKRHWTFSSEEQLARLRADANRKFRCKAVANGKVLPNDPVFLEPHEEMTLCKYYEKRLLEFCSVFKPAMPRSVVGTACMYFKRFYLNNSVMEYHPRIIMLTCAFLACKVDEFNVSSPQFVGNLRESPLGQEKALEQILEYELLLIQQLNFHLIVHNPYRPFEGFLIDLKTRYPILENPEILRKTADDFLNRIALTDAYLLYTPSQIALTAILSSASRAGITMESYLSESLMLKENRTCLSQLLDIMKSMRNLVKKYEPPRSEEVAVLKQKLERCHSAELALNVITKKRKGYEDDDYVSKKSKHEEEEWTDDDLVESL
Chain of CDK7/cyclinH/MAT1 trimeric complex (P51948 whole entry partner): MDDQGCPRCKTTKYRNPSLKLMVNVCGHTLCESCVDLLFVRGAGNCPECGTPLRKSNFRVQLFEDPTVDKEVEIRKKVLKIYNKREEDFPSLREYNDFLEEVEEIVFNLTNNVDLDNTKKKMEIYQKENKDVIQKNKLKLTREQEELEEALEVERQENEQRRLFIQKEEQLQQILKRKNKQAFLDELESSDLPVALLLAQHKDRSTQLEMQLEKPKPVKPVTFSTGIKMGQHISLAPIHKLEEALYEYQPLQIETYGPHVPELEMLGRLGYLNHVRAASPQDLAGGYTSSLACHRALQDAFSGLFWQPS

For `C=CC(=O)N1CC(N2CC[C@@H](c3cc4c(c(C)n3)O[C@@H](C)c3c(N5CCOCC5)ccnc3N4)C2)C1` (single isomer, unassigned) [Compound 243], in experiment [1], the Ki amounted to 0.0802 µM and the kinact was determined as 3.93e-05 s⁻¹. Besides, in experiment [1] (setting [4]), the kinact/KI was found to be 490 M⁻¹ s⁻¹. Moreover, the IC50 in experiment [2] is 0.126 µM. Besides, the IC50 in experiment [3] is above 10 µM.
On the same counts, the results for `C=CC(=O)N1CC(N2CC[C@@H](c3cc4c(c(C)n3)O[C@H](C)c3c(N5CCOCC5)ccnc3N4)C2)C1` (single isomer, unassigned) [Compound 245] are 0.0559 µM, 3.61e-05 s⁻¹, 645 M⁻¹ s⁻¹, 0.0562 µM and above 10 µM.
On the same counts, the results for `C=CC(=O)N1CC(N2CCC(c3cc4c(c(C)n3)O[C@H](C)c3c(C5CCOCC5)ccnc3N4)CC2)C1` (single isomer, unassigned) [Compound 246] are 0.0946 µM, 8.4e-05 s⁻¹, 887 M⁻¹ s⁻¹, around 0.0288 µM and above 10 µM.
Regarding `C=CC(=O)N1CC(N2CCC(c3cc4c(c(C)n3)O[C@@H](C)c3c(C5CCOCC5)ccnc3N4)CC2)C1` (single isomer, unassigned) [Compound 247], in experiment [1], the Ki stood at 1.57 µM and the kinact amounted to 5.48e-05 s⁻¹. For the same compound, the kinact/KI in experiment [1] (setting [4]) came to 34.8 M⁻¹ s⁻¹. Moreover, in experiment [2], the IC50 is 0.776 µM. The IC50 in experiment [3] is above 3.98 µM.
On to `C=CC(=O)N1CC(N2CC(c3cc(C)c4c(c3)Nc3nccc(C5CCOCC5)c3[C@@H](C)O4)C2)C1` (single isomer, unassigned) [Compound 251], for which the kinact/KI in experiment [1] (setting [5]) is 1110 M⁻¹ s⁻¹. In addition, the IC50 in experiment [2] is 0.0437 µM; in experiment [3], above 10 µM.
As to `C=CC(=O)N1CC(N2CC(c3cc(C)c4c(c3)Nc3nccc(C5CCOCC5)c3[C@H](C)O4)C2)C1` (single isomer, unassigned) [Compound 252], in experiment [1], the Ki came to 25.5 µM and the kinact is 0.000306 s⁻¹. For the same compound, in experiment [1] (setting [4]), the kinact/KI amounted to 12 M⁻¹ s⁻¹. Also, the IC50 in experiment [2] was 2.51 µM. The IC50 in experiment [3] is above 10 µM.
For `C=CC(=O)N1CC(N2CCCN(C)[C@H](c3cc(C)c4c(c3)Nc3nccc(C5CCOCC5)c3CO4)C2)C1` (single isomer, unassigned) [Compound 255], in that order: 10.7 µM, 3.55e-05 s⁻¹, 3.33 M⁻¹ s⁻¹, 3.02 µM and above 10 µM.
Consider `C=CC(=O)N1CC(N2CC[C@@H](c3cc(C)c4c(c3)Nc3nccc(C5CCOCC5)c3CO4)N(C)CC2)C1` (single isomer, unassigned) [Compound 256], for which, in experiment [1], the Ki turned out to be 0.0827 µM and the kinact came to 6.71e-05 s⁻¹. In addition, the kinact/KI in experiment [1] (setting [4]) is 811 M⁻¹ s⁻¹. In addition, the IC50 in experiment [2] was 0.0537 µM. For the same compound, the IC50 in experiment [3] was 8.32 µM.
On the same counts, the results for `C=CC(=O)N1CC(N2CC[C@H](c3cc(C)c4c(c3)Nc3nccc(C5CCOCC5)c3CO4)N(C)CC2)C1` (single isomer, unassigned) [Compound 257] are 0.0574 µM, 7.95e-05 s⁻¹, 1380 M⁻¹ s⁻¹, 0.0447 µM and 7.24 µM.
With `C#Cc1cc(C2CCN(C3CN(C(=O)C=C)C3)CC2)cc2c1O[C@@H](C)c1c(N3CCOCC3)ccnc1N2` (single isomer, unassigned) [Compound 258], the kinact/KI in experiment [1] (setting [5]) was 619 M⁻¹ s⁻¹. Further, the IC50 in experiment [2] was 0.0214 µM; in experiment [3], 6.46 µM.
`C=CC(=O)N1CC(N2CCCN(C)[C@@H](c3cc(C)c4c(c3)Nc3nccc(C5CCOCC5)c3CO4)C2)C1` (single isomer, unassigned) [Compound 259]: in experiment [1], the Ki was found to be 0.675 µM and the kinact came to 3.66e-05 s⁻¹. In addition, the kinact/KI in experiment [1] (setting [4]) amounted to 54.2 M⁻¹ s⁻¹. The IC50 in experiment [2] is above 10 µM. In experiment [3], the IC50 is above 10 µM.
For the compound `C=CC(=O)N1CC(N2CCC(c3cc4c(cn3)O[C@@H](C)c3c(N5CCOCC5)ccnc3N4)CC2)C1` (single isomer, unassigned) [Compound 261], in experiment [1], the Ki amounted to 1.11 µM and the inactivation rate constant (kinact) came out at 3.89e-05 s⁻¹. For the same compound, the kinact/KI in experiment [1] (setting [4]) was 34.9 M⁻¹ s⁻¹. In addition, in experiment [2], the IC50 was 0.955 µM. Further, the IC50 in experiment [3] is above 3.98 µM.
On the same counts, the results for `C=CC(=O)N1CC(N2CC(c3cc4c(c(C)n3)O[C@H](C)c3c(N5CCOCC5)ccnc3N4)C2)C1` (single isomer, unassigned) [Compound 270] are 0.0518 µM, 3.7e-05 s⁻¹, 714 M⁻¹ s⁻¹, 0.117 µM and above 10 µM.
Regarding `CC#CC(=O)N1CC[C@H](N2CC(c3cc(C)c4c(c3)Nc3nccc(N5CCOCC5)c3[C@H](C)O4)C2)C1` (single isomer, unassigned) [Compound 281], in experiment [1], the Ki was found to be 0.683 µM and the kinact was 4.07e-05 s⁻¹. In addition, the kinact/KI in experiment [1] (setting [4]) was found to be 59.6 M⁻¹ s⁻¹. Also, the IC50 in experiment [2] was 0.692 µM. The IC50 in experiment [3] was above 10 µM.
In the case of `C=CC(=O)N1CC[C@@H](N2CCC(c3cc4c(c(C)n3)OCc3c(N5CCOCC5)ccnc3N4)CC2)C1` (single isomer, unassigned) [Compound 282], in experiment [1], the Ki was found to be 0.0397 µM and the kinact came out at 5.01e-05 s⁻¹. The kinact/KI in experiment [1] (setting [4]) was 1260 M⁻¹ s⁻¹. In addition, the IC50 in experiment [2] is 0.0309 µM. Moreover, the IC50 in experiment [3] is above 10 µM.
`C=CC(=O)N1CC[C@H](N2CCC(c3cc4c(c(C)n3)OCc3c(N5CCOCC5)ccnc3N4)CC2)C1` (single isomer, unassigned) [Compound 283] registered a Ki in experiment [1] of 0.187 µM. Further, in experiment [1], the kinact was found to be 7.12e-05 s⁻¹. In experiment [1] (setting [4]), the kinact/KI worked out at 381 M⁻¹ s⁻¹. In addition, the IC50 in experiment [2] is 0.0692 µM; in experiment [3], above 10 µM.
For `CC#CC(=O)N1CC[C@@H](N2CC(c3cc(C)c4c(c3)Nc3nccc(N5CCOCC5)c3[C@H](C)O4)C2)C1` (single isomer, unassigned) [Compound 284], in that order: 2 µM, 3.49e-05 s⁻¹, 17.4 M⁻¹ s⁻¹, 2.04 µM and above 10 µM.
With `C=CC(=O)N1CC[C@@H](N2CC(c3cc4c(c(C5CC5)n3)OCc3c(-c5cnn(C)c5)ccnc3N4)C2)C1` (single isomer, unassigned) [Compound 286], the Ki in experiment [1] was 0.146 µM. In experiment [1], the kinact is 4.74e-05 s⁻¹. Also, the kinact/KI in experiment [1] (setting [4]) was determined as 324 M⁻¹ s⁻¹. The IC50 in experiment [2] was 0.126 µM; in experiment [3] it was above 10 µM.
On the same counts, the results for `C=CC(=O)N1CC[C@H](N2CC(c3cc4c(c(C5CC5)n3)OCc3c(-c5cnn(C)c5)ccnc3N4)C2)C1` (single isomer, unassigned) [Compound 287] are 0.188 µM, 0.000117 s⁻¹, 622 M⁻¹ s⁻¹, 0.129 µM and above 10 µM.
On the same counts, the results for `CC#CC(=O)N1CC[C@H](N2CC(c3cc(C)c4c(c3)Nc3nccc(N5CCOCC5)c3[C@@H](C)O4)C2)C1` (single isomer, unassigned) [Compound 288] are 0.0411 µM, 2.54e-05 s⁻¹, 619 M⁻¹ s⁻¹, 0.129 µM and 10 µM.
On to `CC#CC(=O)N1CC[C@@H](N2CC(c3cc(C)c4c(c3)Nc3nccc(N5CCOCC5)c3[C@@H](C)O4)C2)C1` (single isomer, unassigned) [Compound 289], for which, in experiment [1], the Ki amounted to 0.0628 µM and the kinact was 2.54e-05 s⁻¹. The kinact/KI in experiment [1] (setting [4]) was 404 M⁻¹ s⁻¹. Further, the IC50 in experiment [2] was 0.123 µM. Moreover, the IC50 in experiment [3] is above 10 µM.
With `C=CC(=O)N1CC(N2CC(c3cc(C#N)c4c(c3)Nc3nccc(C5CCOCC5)c3[C@H](C)O4)C2)C1` (single isomer, unassigned) [Compound 291], the kinact/KI in experiment [1] (setting [5]) is 26.5 M⁻¹ s⁻¹. The IC50 in experiment [2] was 1.23 µM; in experiment [3], above 10 µM.
On the same counts, the results for `C=CC(=O)N1CC(N2CC(c3cc(C#N)c4c(c3)Nc3nccc(C5CCOCC5)c3[C@@H](C)O4)C2)C1` (single isomer, unassigned) [Compound 292] are 802 M⁻¹ s⁻¹, 0.0562 µM and 8.32 µM.
In the case of `C=CC(=O)N1CC(N2CC(c3cc4c(cn3)O[C@H](C)c3c(-c5cnn(C)c5)ccnc3N4)C2)C1` (single isomer, unassigned) [Compound 295], in experiment [1], the Ki was found to be 0.0688 µM and the kinact is 5.48e-05 s⁻¹. Also, the kinact/KI in experiment [1] (setting [4]) was 796 M⁻¹ s⁻¹. Moreover, the IC50 in experiment [2] was 0.178 µM. For the same compound, the IC50 in experiment [3] was around 8.32 µM.
For `CC#CC(=O)N1CC[C@@H](N2CC(c3cc(C)c4c(c3)Nc3nccc(C5CCOCC5)c3CO4)C2)C1` (single isomer, unassigned) [Compound 296], in that order: 0.067 µM, 3.52e-05 s⁻¹, 526 M⁻¹ s⁻¹, 0.224 µM and above 10 µM.

As usually defined, the kinact is the maximal first-order rate at which the target is inactivated.
